Results: patent publication US20170175161A1, “RAPID DETERMINATION OF BACTERIAL SUSCEPTIBILITY TO AN […] THE POINT OF CARE” (Point of Care Diagnostics, LLC, priority 2014, published 2017)

System: bacterial infection within the sample (sample 101, e.g. urine)
Assay: assay 200: antibiotic susceptibility of a bacterial infection by ATP bioluminescence
Assay type: cell-based
Description: To perform assay 200 to determine antibiotic susceptibility of a bacterial infection within the sample, a second test sample 204 and third test sample 205 may be obtained from sample 101 by applying 50 to 400 μL of first reagent 202 and 50 to 300 μL of culture medium 203 to 1 to 20 μL of sample 101 to create second test sample 204 and to 1 to 20 μL of sample 101 to create third test sample 205. First reagent 202 may include 10 to 100 mM of Tris Acetate as a buffer, 0.0001 to 0.1% of Benzethonium Chloride, and 0.5 to 4 Units/ml of Apyrase. First reagent 202 may cause non-bacterial ATP to be released and removed, in a manner similar to that as described herein. Culture medium 203 may include 50 to 300 μL of Tryptic Soy Broth. Culture medium 203 may be applied to second test sample 204 and third test sample 205 and may promote the growth and robustness of the bacterial population, in a manner similar to that described herein.
First antibiotic 206 may be applied to third test sample 205. In this example, first antibiotic 206 may include 10 to 100 μg of Amoxicillin. Second test sample 204 and the third test sample 205 may then be incubated for ˜40 minutes at 37 degrees Celsius.
After incubation, second reagent 207 (e.g., 100 to 500 μL) may be applied to second test sample 204 and third test sample 205. Second reagent 207 may include 10 to 100 mM of Tris Acetate as a buffer and 2 to 30 mg/L of Luciferase, 2 to 30 mg/L of Luciferin, and 0.1 to 0.5% of Chlorhexidine di-gluconate. […]
A Berthold Junior Luminometer may be used to measure a first bioluminescent signal (and associated strength) from third test sample 205 and a second bioluminescent signal (and associated strength) from second test sample 204 (e.g., based on released ATP, etc.). In a manner similar to that described above, the strength associated with the first bioluminescent signal and/or the strength associated with the second bioluminescent signal may be proportional to the respective quantity and/or concentration of ATP and/or quantity of bacterial cells within third test sample 205 and/or second test sample 204, respectively. […] In this example, the strength of the first bioluminescent signal was measured to be 66,823 RLU's and the strength of the second bioluminescent signal was measured to be 62,535 RLU's. Thus, the quantity of bacteria cells in third test sample 205 was ˜62,000 cfu/ml and the quantity of bacteria cells in the second test sample 204 was ˜67,000 cfu/ml.
In the event that the bacteria, within third test sample 205, are susceptible to first antibiotic 206, the quantity of bacterial cells in third test sample 205 may be less than the quantity of bacterial cells in second test sample 204. […]

## CC1(C)S[C@@H]2[C@H](NC(=O)[C@H](N)c3ccc(O)cc3)C(=O)N2[C@H]1C(=O)O [Amoxicillin]
10-100 μg, ΔL compared to second threshold >30% difference
  susceptibility of the bacteria to the antibiotic: may not be susceptible
10 to 100 μg antibiotic, incubated ~40 minutes at 37 degrees Celsius, Berthold Junior Luminometer, baseline second test sample 62,535 RLU's
  strength of the first bioluminescent signal (third test sample 205, with antibiotic): 66,823 RLU's
10 to 100 μg antibiotic, ~40 minutes at 37 degrees Celsius, baseline second test sample ~67,000 cfu/ml
  quantity of bacteria cells in third test sample 205: ~62,000 cfu/ml
antibiotic-treated vs baseline sample, second threshold >30% difference
  ΔL, difference between first and second bioluminescent signal strength: 7.5%
